Assay results: the supplement of paper PMC10307832

Assays:
Experiment in all cases: relative viability (nuclei count vs DMSO), 5 days (fraction); higher = more cells survive
[1] = compound: Cc1ccc(C(=O)Nc2ccc(CN3CCN(C)CC3)c(C(F)(F)F)c2)cc1C#Cc1cnc2cccnn12 [Ponatinib] + Cc1nc(NC(=O)N2CCC[C@H]2C(N)=O)sc1-c1ccnc(C(C)(C)C(F)(F)F)c1 [Alpelisib] (partner 2 µM)
Outline: (§1)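 Values are medians from duplicate plates. Each reflects relative viability, defined as the nuclei count of treated wells over that of vehicle wells. Lung cancer cell lines in 1536-well plates were pin-tool dosed one day after seeding with one drug alone or with a fixed anchor-drug dose plus five library-drug doses (not always all listed) in √10 steps, then fixed, stained and imaged at 4× after 5 days.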

[2] = compound: Cc1ccc(Nc2nccc(N(C)c3ccc4c(C)n(C)nc4c3)n2)cc1S(N)(=O)=O [Pazopanib] + Nc1nc2[nH]cc(CCc3ccc(C(=O)N[C@@H](CCC(=O)O)C(=O)O)cc3)c2c(=O)[nH]1 [Pemetrexed] (partner 0.2 µM)
Outline: as §1

[3] = compound: Cc1ccc(Nc2nccc(N(C)c3ccc4c(C)n(C)nc4c3)n2)cc1S(N)(=O)=O [Pazopanib] + CS(=O)(=O)N1CCN(Cc2cc3nc(-c4cccc5[nH]ncc45)nc(N4CCOCC4)c3s2)CC1 [Pictilisib] (partner 1 µM)
Outline: as §1

[4] = compound: Cc1ccc(C(=O)Nc2ccc(CN3CCN(C)CC3)c(C(F)(F)F)c2)cc1C#Cc1cnc2cccnn12 [Ponatinib] + CC(=O)c1c(C)c2cnc(Nc3ccc(N4CCNCC4)cn3)nc2n(C2CCCC2)c1=O [Palbociclib] (partner 0.5 µM)
Outline: as §1

Cell Line | relative viability ([1]; first compound 0.002 µM) | relative viability ([1]; first compound 0.006325 µM) | relative viability ([1]; first compound 0.06325 µM) | relative viability ([1]; first compound 0.2 µM) | relative viability ([2]; first compound 0.01 µM) | relative viability ([2]; first compound 0.03162 µM) | relative viability ([2]; first compound 0.1 µM) | relative viability ([2]; first compound 0.3162 µM) | relative viability ([2]; first compound 1 µM) | relative viability ([3]; first compound 0.01 µM) | relative viability ([3]; first compound 0.03162 µM) | relative viability ([3]; first compound 0.1 µM) | relative viability ([3]; first compound 0.3162 µM) | relative viability ([3]; first compound 1 µM) | relative viability ([4]; first compound 0.002 µM) | relative viability ([4]; first compound 0.006325 µM) | relative viability ([4]; first compound 0.06325 µM) | relative viability ([4]; first compound 0.2 µM)
LOU-NH91 | 0.703 | 0.792 | 0.822 | 0.713 | 0.367 | 0.356 | 0.417 | 0.416 | 0.352 | 0.501 | 0.534 | 0.502 | 0.568 | 0.543 | 0.587 | 0.531 | 0.528 | 0.549
NCI-H2228 | 0.677 | 0.788 | 1.13 | 0.75 | 0.366 | 0.337 | 0.296 | 0.348 | 0.333 | 0.46 | 0.386 | 0.328 | 0.393 | 0.511 | 0.587 | 0.647 | 0.728 | 0.593
PC-3 [JPC-3] | 1 | 1.09 | 1.02 | 1.09 |  | 0.993 | 0.957 | 1.06 | 1.15 | 0.745 | 0.707 | 0.808 | 0.73 | 0.716 |  | 0.576 | 0.608 | 0.544
NCI-H1437 | 0.952 | 0.969 | 1.17 | 1.03 | 0.327 | 0.333 | 0.328 | 0.296 | 0.321 | 0.343 | 0.449 | 0.441 | 0.499 | 0.626 | 0.285 | 0.318 | 0.316 | 0.332
NCI-H520 | 0.747 | 0.834 | 0.882 | 0.66 | 0.642 | 0.728 | 0.768 | 0.755 | 0.602 |  | 0.302 | 0.335 | 0.278 | 0.254 | 0.215 | 0.207 | 0.172 | 0.16
NCI-H1666 | 0.864 | 1.04 | 1.05 | 1.07 | 0.932 | 0.834 | 0.92 | 0.72 | 0.847 | 0.369 | 0.307 | 0.379 | 0.421 | 0.426 | 0.661 | 0.659 | 0.666 | 0.639
NCI-H1651 | 0.867 | 1.06 | 1.07 | 0.991 | 0.6 | 0.603 | 0.574 | 0.542 | 0.583 | 0.456 | 0.542 | 0.494 | 0.611 | 0.684 | 0.529 | 0.539 | 0.557 | 0.552
NCI-H1755 | 0.905 | 0.96 | 0.957 | 0.854 | 0.438 | 0.427 | 0.458 | 0.456 | 0.42 | 0.368 | 0.432 | 0.386 | 0.458 | 0.446 | 0.419 | 0.44 | 0.413 | 0.369
HARA | 0.779 | 0.79 | 0.97 | 0.729 | 0.245 | 0.244 | 0.242 | 0.207 | 0.237 | 0.26 | 0.332 | 0.493 | 0.479 | 0.343 | 0.246 | 0.332 | 0.228 | 0.246
NCI-H647 | 1.12 | 1.25 | 1.06 | 0.961 | 0.174 | 0.159 | 0.164 | 0.153 | 0.177 | 0.319 | 0.532 |  | 0.542 | 0.508 | 0.358 | 0.345 | 0.47 | 0.438
NCI-H23 | 0.61 | 0.818 | 0.905 | 0.666 | 0.529 | 0.727 | 0.702 | 0.658 | 0.829 | 0.415 | 0.534 | 0.483 | 0.498 | 0.711 | 0.521 | 0.495 | 0.683 | 0.509
LCLC-97TM1 |  | 0.227 |  | 0.314 |  | 0.165 | 0.136 | 0.157 | 0.154 |  | 0.196 | 0.195 | 0.201 | 0.179 | 0.233 | 0.239 | 0.252 | 0.221
EPLC-272H | 0.781 | 1.12 | 1.12 | 0.942 | 0.313 | 0.461 | 0.318 | 0.332 | 0.353 | 0.264 | 0.335 | 0.27 | 0.35 | 0.274 | 0.292 | 0.34 | 0.376 | 0.332
NCI-H1915 | 0.976 | 1.03 | 1.06 | 0.961 | 0.509 | 0.442 | 0.472 | 0.467 | 0.474 | 0.905 | 0.972 | 0.976 | 0.971 | 0.899 | 0.522 | 0.554 | 0.523 | 0.466
NCI-H3122 | 0.883 | 0.86 | 0.863 | 0.909 | 0.207 | 0.188 | 0.188 | 0.191 | 0.212 | 0.516 | 0.638 | 0.689 | 0.688 | 0.803 | 0.194 | 0.186 | 0.213 | 0.203
NCI-H441 | 0.625 | 0.615 | 0.808 | 0.525 | 0.236 | 0.274 | 0.272 | 0.224 | 0.253 | 0.449 | 0.52 | 0.573 | 0.603 | 0.39 | 0.238 | 0.229 | 0.252 | 0.209
NCI-H358 | 0.886 | 0.95 | 0.942 | 0.772 | 0.179 | 0.167 | 0.168 | 0.165 | 0.161 | 0.337 | 0.333 | 0.297 | 0.415 | 0.395 | 0.137 | 0.129 | 0.148 | 0.136
NCI-H1793 | 0.677 | 0.946 | 0.907 | 0.729 |  | 0.864 | 0.949 | 0.76 | 1.09 |  | 0.361 | 0.355 | 0.392 | 0.36 | 0.328 | 0.327 | 0.394 | 0.413
SK-MES-1 | 0.981 | 0.949 | 1.32 | 1.05 | 0.91 | 0.981 | 0.961 | 0.924 | 0.985 | 0.39 | 0.365 | 0.391 | 0.379 | 0.335 | 0.36 | 0.379 | 0.405 | 0.327
PC-14 | 0.856 | 0.906 | 1.05 | 0.879 | 0.133 | 0.137 | 0.124 | 0.133 | 0.126 | 0.64 | 0.612 | 0.88 | 0.637 | 0.686 | 0.464 | 0.533 | 0.73 | 0.584
CAL-12T | 1.03 | 1.12 | 1.46 | 0.979 | 1.13 | 1.3 | 1.37 | 1.08 | 1.26 | 0.335 | 0.461 | 0.527 | 0.401 | 0.423 | 0.295 | 0.524 | 0.622 | 0.535
